In PMC4096217 (Journal of Medicinal Chemistry, 2014):

Test system: BR+ cancer cell lines (MX-1, MCF-7, ID8, L1210FR)
Test: MTT cytotoxicity, 72 h, summarised over the four BR+ cancer cell lines
Format: cell-based
Details: Table 1 entries 1 and 2

SB-T-1214 [taxoid 1]
Cytotoxicity relative to camptothecin (times stronger): 148–846 times
